Test results: US20250179047A1, “5-[7-(3,4-DIHYDRO-1H-ISOQUINOLINE-2-CARBONYL)-1,2,3,4 TETRAHYDROISOQUINOLIN-6-YL]-1H-PYRROLE-3-CARBOXAMIDE DERIVATIVES, PHARMACEUTICAL COMPOSITIONS CONTAINING THEM AND THEIR USES AS PRO-APOPTOTIC AGENTS” (LES LABORATOIRES SERVIER, priority 2022, published 2025)
pKi: −log10 of the molar value. Where two headings read alike, the source gives them in different places.

How the values were obtained:
BCL2 WT = BCL2 WT (Homo sapiens (Human), UniProt P10415); assay: TR-FRET competitive binding assay, BCL2 WT
How it was run: (§1)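 Ki derived from IC50 (11-point dilution, 520/495 nm emission ratio) for displacing a fluorescein-labelled PUMA peptide (2 or 20 nM). Target was 0.5 nM E. coli-expressed Halo-tagged BCL2 (1-207) or BCLXL (2-196), terbium-labelled on Halo. Incubation 2 h at 23°C in pH 7.5 Hepes with 150 mM NaCl and 5% DMSO.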

BCL2 G101V [1] = biological target: BCL2 G101V (Homo sapiens, UniProt P10415, G101V); assay: TR-FRET competitive binding assay, BCL2 G101V; conditions: BCL2 G101V; Ki determined from IC50; read-out: TR_FRET EKI_Bcl2 G101V
How it was run: as §1

BCL2 G101V [2] = assay: TR-FRET competitive binding assay, BCL2 G101V; parameters: species or system human; conditions: for TR_FRET EKI G101V/WT selectivty ratio: ratio Ki BCL2 G101V / Ki BCL2 WT
How it was run: as §1

BCL2 D103Y = BCL2 D103Y (Homo sapiens, UniProt P10415, D103Y); assay: TR-FRET competitive binding assay, BCL2 D103Y; conditions: Ki determined from IC50, read-out: TR_FRET EKI_Bcl2 D103Y
How it was run: as §1

BCL2 F104I = BCL2 F104I (Homo sapiens, UniProt P10415, F104I); assay: TR-FRET competitive binding assay, BCL2 F104I; conditions: Ki determined from IC50, read-out: TR_FRET EKI_Bcl2 F104I
Procedure: (§2) The relative binding potency of each compound was determined in a competitive binding assay using time resolved-fluorescence resonance energy transfer (TR-FRET). The method utilised a fluorescein labelled peptide derived from PUMA (5Flu-Ahx-[…]-NH2 wherein Ahx means 6-hexanoic acid monomer and the amino acid sequence is referred to as SEQ ID:01) which binds to a terbium labelled BCL2 or BCLXL protein. The degree of binding or corresponding compound inhibition can be quantified by the TR-FRET signal between the terbium donor and fluorescein acceptor.
(§3) The human BCL2_wild-type (also named BCL2_wt), BCL2_G101V mutant and BCLXL_wild-type were E. coli expressed as a N-terminal Halo-fusion proteins and singly labelled with Terbium on the Halo protein to afford the following amino acid sequences:
(§4) wherein the BCL2(1-207) sequence corresponds to UniProtKB® primary accession number P10415 and the BCLXL(2-196) sequence corresponds to UniProtKB® primary accession number Q07817-1.
(§5) The assay was performed in a 40 μL volume in white 384-standard well plates (Corning #3574). An 11-point serial dilution of each compound was prepared in DMSO and transferred directly to plate followed by addition of fluorescein labelled peptide and lastly protein. Final assay conditions were 0.5 nM BCL2_wt, BCL2_G101V, BCL2_D103Y, BCL2_F104I, BCL2_D111A or BCLXL_wt, 2 or 20 nM fluorescein labelled peptide, 50 mM Hepes pH 7.5, 150 mM NaCl, 0.5 mM TCEP (Tris(2-carboxyethyl)phosphine), 0.05% Tween 20, 5% DMSO. The mixture was incubated for 2 hours at 23° C.
(§6) TR-FRET measurements were performed on a Biotek Synergy Neo plate reader. TR-FRET was measured by excitation of the Terbium-donor at 340 nm and subsequent (delay time 100 μs) measurement of terbium and fluorescein emission at 495 nm and 520 nm, respectively, over a collection time of 300 μs. The TR-FRET signal was calculated as the emission-ratio at 520 nm over 495 nm.
(§7) The TR-FRET ratio readout for test compounds was normalized against 0% inhibition controls wells and 100% inhibition control wells. Test compound potency (IC50) was estimated by nonlinear regression using the sigmoidal dose-response (variable slope) using Xlfit 4 (IDBS, Guildford, Surrey, UK, model 205). Were the IC50 could not be determined the % inhibition at the highest tested concentration is given.
(§8) y=(A+((B−A)/(1+((C/x)^D))))
(§9) where y is the normalized TR-TRET ratio measurement for a given concentration of test compound, x is the concentration of test compound, A is the estimated efficacy (% inhibition) at infinite compound dilution, and B is the maximal efficacy (% inhibition). C is the IC50 value and D is the Hill slope coefficient.
(§10) The K1 values were determined from the IC50 values according to Cer et al, Nucleic Acids Res, 2009, July 1; 37 (WebServer issue): W441-W445.

BCL2 D111A = BCL2 D111A (Homo sapiens, UniProt P10415, D111A); assay: TR-FRET competitive binding assay, BCL2 D111A; conditions: Ki determined from IC50, read-out: TR_FRET EKI_Bcl2 D111A
Procedure: as §2, §3, §4, §5, §6, §7, §8, §9, §10

BCLXL WT = BCLXL WT (Homo sapiens (Human), UniProt Q07817); assay: TR-FRET competitive binding assay, BCLXL WT; conditions: for pKi: BCLXL WT, Ki determined from IC50, read-out: TR_FRET EKI BclxL; for TR_FRET EKI BCLxL/WT selectivty ratio: ratio Ki BCLxL / Ki BCL2 WT
Sequence of BCLXL WT (Q07817 other isoform, or with tags, fused parts or gaps): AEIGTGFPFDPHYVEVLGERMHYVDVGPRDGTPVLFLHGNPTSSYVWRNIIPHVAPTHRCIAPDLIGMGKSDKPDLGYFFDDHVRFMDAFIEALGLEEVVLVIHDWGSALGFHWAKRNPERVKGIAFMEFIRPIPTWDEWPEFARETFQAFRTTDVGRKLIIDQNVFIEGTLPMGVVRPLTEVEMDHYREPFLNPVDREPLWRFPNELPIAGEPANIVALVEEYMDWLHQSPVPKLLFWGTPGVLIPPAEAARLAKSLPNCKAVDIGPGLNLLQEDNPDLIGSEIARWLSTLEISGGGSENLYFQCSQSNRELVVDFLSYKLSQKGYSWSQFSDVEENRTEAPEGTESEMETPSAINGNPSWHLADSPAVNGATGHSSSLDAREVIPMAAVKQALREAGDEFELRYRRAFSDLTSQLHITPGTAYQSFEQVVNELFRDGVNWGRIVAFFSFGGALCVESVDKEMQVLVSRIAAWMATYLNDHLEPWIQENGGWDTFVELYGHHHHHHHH
How it was run: as §1

KMS-12-PE Bcl-2 WT = assay: In vitro cytotoxicity CellTiter-Glo 48 h, KMS-12-PE Bcl-2 WT; assay type: cell-based; conditions: Homo sapiens, KMS-12-PE, C50 = concentration needed to reach 50% of the cellular viability
How it was run: (§11)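 Bcl-2 WT- and G101V-expressing KMS-12-PE cells; 48 h treatment at 37 °C, 5% CO2; CellTiter-Glo ATP luminescence; C50 from 11-point curves.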

KMS-12-PE Bcl-2 G101V = assay: In vitro cytotoxicity CellTiter-Glo 48 h, KMS-12-PE Bcl-2 G101V; assay type: cell-based; conditions: for Ratio (G101V/WT): C50 KMS-12-PE Bcl-2 G101V over C50 KMS-12-PE Bcl-2 WT; for IC50: 48 h, CellTiter-Glo, C50 = concentration needed to reach 50% of the cellular viability
How it was run: as §11

[3] = Ki determined from IC50, read-out: TR_FRET EKI_Bcl2 WT

| SMILES | pKi (BCL2 WT; [3]) | pKi (BCL2 G101V [1]) | TR_FRET EKI G101V/WT selectivty ratio (BCL2 G101V [2]) | pKi (BCL2 D103Y) | pKi (BCL2 F104I) | pKi (BCL2 D111A) | pKi (BCLXL WT) | TR_FRET EKI BCLxL/WT selectivty ratio (BCLXL WT) | pKi (BCL2 WT; Ki determined from IC50, read-out: TR_FRET EKI_Bcl2) | TR_FRET EKI G101V/WT selectivty (BCL2 G101V [2]; ratio of Ki BCL2 G101V to BCL2 WT) | TR_FRET EKI BCLxL/WT selectivty (BCLXL WT; ratio of Ki BCLxL to BCL2 WT) | IC50 (KMS-12-PE Bcl-2 WT) [µM] | Ratio (G101V/WT) (KMS-12-PE Bcl-2 G101V) | IC50 (KMS-12-PE Bcl-2 G101V; Homo sapiens, KMS-12-PE) [µM] | IC50 (KMS-12-PE Bcl-2 G101V) [µM] |
| --- | --- | --- | --- | --- | --- | --- | --- | --- | --- | --- | --- | --- | --- | --- | --- |
| Cc1c(N(C(=O)c2cc(-c3cc4c(cc3C(=O)N3Cc5ccccc5C[C@H]3C)CN(C(=O)Cc3ccc(OCCN5C[C@H](C)O[C@@H](C)C5)cc3)CC4)n(C)c2C)c2ccc(O)cc2)cc(C#N)n1C (single isomer, unassigned) [Example 42, N-(5-cyano-1,2-dimethyl-1H-pyrrol-3-yl)-5-{2-[2-(4-{2-[(2R or S,6R or S)-2,6-dimethylmorpholin-4-yl]ethoxy}phenyl)acetyl]-7-[(3R)-3-methyl-1,2,3,4-tetrahydroisoquinoline-2-carbonyl]-1,2,3,4-tetrahydroisoquinolin-6-yl}-N-(4-hydroxyphenyl)-1,2-dimethyl-1H-pyrrole-3-carboxamide] | 9.74 | 9.52 | 1.8 | 9.21 | 9.12 | 9.44 | 8.52 | 16.7 | – | – | – | 0.0046 | 3.77 | 0.0175 | – |
| Cc1c(N(C(=O)c2cc(-c3cc4c(cc3C(=O)N3Cc5ccccc5C[C@H]3C)CN(C(=O)Cc3ccc(N5CCC(N6CCOCC6)C5)cc3)CC4)n(C)c2C)c2ccc(O)cc2)cc(C#N)n1C (single isomer, unassigned) [Example 63, N-(5-cyano-1,2-dimethyl-1H-pyrrol-3-yl)-N-(4-hydroxyphenyl)-1,2-dimethyl-5-{7-[(3R)-3-methyl-1,2,3,4-tetrahydroisoquinoline-2-carbonyl]-2-(2-{4-[(3R or S)-3-(morpholin-4-yl)pyrrolidin-1-yl]phenyl}acetyl)-1,2,3,4-tetrahydroisoquinolin-6-yl}-1H-pyrrole-3-carboxamide] | 9.96 | 9.05 | 7.8 | 9.34 | 8.55 | 9.38 | 8.77 | 15.5 | – | – | – | 0.0079 | 5.84 | 0.046 | – |
| Cc1c(N(C(=O)c2cc(-c3cc4c(cc3C(=O)N3Cc5ccccc5C[C@H]3CN3CCCCC3)CN(C(=O)Cc3ccc(OCCN5CCOC(C)C5)cc3F)CC4)n(C)c2C)c2ccc(O)cc2)cc(C#N)n1C (single isomer, unassigned) [Example 108, N-(5-cyano-1,2-dimethyl-1H-pyrrol-3-yl)-5-[2-(2-{2-fluoro-4-[2-((2S or R)-2-methylmorpholin-4-yl)ethoxy]phenyl}acetyl)-7-[(3S)-3-[(piperidin-1-yl)methyl]-1,2,3,4-tetrahydroisoquinoline-2-carbonyl]-1,2,3,4-tetrahydroisoquinolin-6-yl]-N-(4-hydroxyphenyl)-1,2-dimethyl-1H-pyrrole-3-carboxamide] | 10.15 | 9.40 | 5.1 | 9.85 | 9.72 | 9.80 | 8.68 | 30.9 | – | – | – | 0.0066 | 5.85 | 0.0383 | – |
| Cc1c(N(C(=O)c2cc(-c3cc4c(cc3C(=O)N3Cc5ccccc5C[C@H]3CN3CCCCC3)CN(C(=O)Cc3ccc(OCC(C)N5CCOCC5)cc3)CC4)n(C)c2C)c2ccc(O)cc2)cc(C#N)n1C (single isomer, unassigned) [Example 127, N-(5-cyano-1,2-dimethyl-1H-pyrrol-3-yl)-N-(4-hydroxyphenyl)-1,2-dimethyl-5-[2-(2-{4-[(2S or R)-2-(morpholin-4-yl)propoxy]phenyl}acetyl)-7-[(3S)-3-[(piperidin-1-yl)methyl]-1,2,3,4-tetrahydroisoquinoline-2-carbonyl]-1,2,3,4-tetrahydroisoquinolin-6-yl]-1H-pyrrole-3-carboxamide] | 10.30 | 9.70 | 4.3 | 9.80 | 9.59 | 9.89 | 8.44 | 76.6 | – | – | – | 0.0077 | 3.58 | – | 0.0277 |
| Cc1c(N(C(=O)c2cc(-c3cc4c(cc3C(=O)N3Cc5ccccc5C[C@H]3CN3CCCCC3)CN(C(=O)Cc3ccc(OCC(C)N5CCOCC5)cc3F)CC4)n(C)c2C)c2ccc(O)cc2)cc(C#N)n1C (single isomer, unassigned) [Example 135, N-(5-cyano-1,2-dimethyl-1H-pyrrol-3-yl)-5-[2-(2-{2-fluoro-4-[(2S or R)-2-(morpholin-4-yl)propoxyphenyl}acetyl)-7-[(3S)-3-[(piperidin-1-yl)methyl]-1,2,3,4-tetrahydroisoquinoline-2-carbonyl]-1,2,3,4-tetrahydroisoquinolin-6-yl]-N-(4-hydroxyphenyl)-1,2-dimethyl-1H-pyrrole-3-carboxamide] | 10.15 | 9.40 | 5.8 | 9.68 | 9.47 | 9.77 | 8.35 | 60.8 | – | – | – | 0.0044 | 7.72 | 0.0339 | – |

Second part, led by results:

| pKi (BCL2 WT; [3]) | pKi (BCL2 G101V [1]) | TR_FRET EKI G101V/WT selectivty ratio (BCL2 G101V [2]) | pKi (BCL2 D103Y) | pKi (BCL2 F104I) | pKi (BCL2 D111A) | pKi (BCLXL WT) | TR_FRET EKI BCLxL/WT selectivty ratio (BCLXL WT) | pKi (BCL2 WT; Ki determined from IC50, read-out: TR_FRET EKI_Bcl2) | TR_FRET EKI G101V/WT selectivty (BCL2 G101V [2]; ratio of Ki BCL2 G101V to BCL2 WT) | TR_FRET EKI BCLxL/WT selectivty (BCLXL WT; ratio of Ki BCLxL to BCL2 WT) | SMILES | IC50 (KMS-12-PE Bcl-2 WT) [µM] | Ratio (G101V/WT) (KMS-12-PE Bcl-2 G101V) | IC50 (KMS-12-PE Bcl-2 G101V; Homo sapiens, KMS-12-PE) [µM] | IC50 (KMS-12-PE Bcl-2 G101V) [µM] |
| --- | --- | --- | --- | --- | --- | --- | --- | --- | --- | --- | --- | --- | --- | --- | --- |
| 9.89 | 9.15 | 5.1 | 9.17 | 8.69 | – | 8.96 | 8.5 | – | – | – | Cc1c(N(C(=O)c2cc(-c3cc4c(cc3C(=O)N3Cc5ccccc5C[C@H]3C)CN(C(=O)Cc3cccc(N5CCOCC5)c3)CC4)n(C)c2C)c2ccc(O)cc2)cc(C#N)n1C [Example 6, N-(5-cyano-1,2-dimethylpyrrol-3-yl)-N-(4-hydroxyphenyl)-1,2-dimethyl-5-(7-{[(3R)-3-methyl-3,4-dihydro-1H-isoquinolin-2-yl]carbonyl}-2-{2-[3-(morpholin-4-yl)phenyl]acetyl}-3,4-dihydro-1H-isoquinolin-6-yl)pyrrole-3-carboxamide] | 0.0106 | 5.34 | 0.0566 | – |
| – | 9.14 | – | 9.10 | 8.95 | 9.88 | 8.38 | – | 10.11 | 9.3 | 53.1 | Cc1c(N(C(=O)c2cc(-c3cc4c(cc3C(=O)N3Cc5ccccc5C[C@H]3C)CN(C(=O)Cc3ccc(OCCN5CCOCC5)cc3)CC4)n(C)c2C)c2ccccc2)cc(C#N)n1C [Example 236] | 0.00418 | – | – | – |
